Data on one molecule can be found in patent publication US20260216182A1, “PYRIDAZINE NLRP3 INHIBITOR COMPOUND, PHARMACEUTICAL COMPOSITION, AND PREPARATION METHOD THEREFOR AND USE THEREOF” (CHANGCHUN GENESCIENCE PHARMACEUTICAL CO., LTD., priority 2022, published 2026).

The test system of the assay is MSU-induced acute rat gouty arthritis model. The assay can be described thus: MSU-induced rat acute gouty arthritis model. In kind it is in vivo, SD rats. To be noted: FIG. 1. On the procedure:
Test Example 3 MSU-Induced Rat Gouty Arthritis Model Evaluation Test
In this test, male SD rats were used to establish an acute gouty arthritis model by injecting 64 mg/mL sodium urate (MSU) crystal suspension into the right hind ankle joint cavity of the rats. The animals were randomly divided into normal control group, model control group, different dose groups of test compound, 7 rats in each group. The compound group was orally administered with the compound 1 h before and after modeling, and the normal control group and model control group were given an equal amount of vehicle. The foot circumference and foot diameter were measured before and 24 h after modeling.

In the case of `CC#Cc1ccc2c(-c3ccc(Cl)cc3O)nnc(NC[C@H](O)CO)c2c1` [Compound 062, (S)-3-((4-(4-chloro-2-hydroxyphenyl)-7-(prop-1-yn-1-yl)phthalazin-1-yl)amino) propan-1,2-diol], the “effect on ankle joint swelling compared with control compound” value was “significantly better than that of the control compound”. The ankle joint swelling result (oral, 1 h before and after modeling, 24 h after modeling) is “dose-dependent improvement in ankle joint swelling”.
